Assays:
[1] = test system: mixture of aerobic populations from more than 30 cooling systems in North America; assay: Bacterial growth inhibition test, similar to the MBEC assay; growth recorded visually or by turbidity at 650 nm; format: cell-based; set-up: key: “−” indicates no detectable growth at the end of test; “+” indicates detectable growth; “+/−” partial growth; “++” more growth; conditions: 40-48 hours incubation at 32-35° C.
Text: The microbial and biofilm inhibition test protocols used in this example is similar to the MBEC (Minimum Biofilm Eradication Concentration) assay and American Society for Testing and Materials (ASTM) MBEC-[…]-12 (2011) assay, both of which are commonly used. This test protocol can be used laboratory and field applications. The test protocol can be conducted in a 12-well or 96-well tissue culture plate format. The 12-well plate format is mainly for lab based and detailed screening/studies. The 96-well format is developed mainly for field applications. The test protocol starts with the preparation of the water sample to be tested by mixing the water from different water systems or artificial water with known bacterial populations with limited nutrient (16% of medium, 2% (w/w) casitone, 0.8% (w/w) yeast extracts, 4% (v/v) glycerol, 4 ppm FeCl3) and the solution of the treatment chemical. This step usually generates a series of the treated water samples with different concentrations for the treatment chemical(s) (from about 0.8 ppm to 1,000 ppm). Next, 200 μL of each treated water samples were transferred to a 96 well plate or 12 well plate. Usually, six replicates would be tested for each concentration of the treatment chemical(s) and controls with no treatment chemical and no bacterial were also placed in the plate(s). After the treated samples were properly plated, the plate(s) are placed on a slow rotary shaker in a humidity-controlled environment on at 32-35° C. for 40-48 hours of incubation. After the incubation, the bacterial growth in each well of the plate was recorded either visually or by a microplate turbidity reader at 650 nm to determine the minimum bacterial growth inhibition concentration for a treatment chemical. The bacteria used in this example for microbial and/or biofilm growth inhibition test protocols comprised a mixture of aerobic populations from more than 30 cooling systems in North America. The specific species were not specifically identified. Those species were grown on […] agar.

[2] = test system: biofilm of a mixture of aerobic populations from more than 30 cooling systems in North America; assay: Biofilm growth inhibition test, similar to the MBEC assay; INT or crystal violet stain of biofilm on well walls; format: cell-based; set-up: key: “−” indicates no detectable growth at the end of test; “+” indicates detectable growth; “+/−” partial growth; “++” more growth; conditions: 40-48 hours incubation at 32-35° C.
Text: The microbial and biofilm inhibition test protocols used in this example is similar to the MBEC (Minimum Biofilm Eradication Concentration) assay and American Society for Testing and Materials (ASTM) MBEC-[…]-12 (2011) assay, both of which are commonly used. This test protocol can be used laboratory and field applications. The test protocol can be conducted in a 12-well or 96-well tissue culture plate format. The 12-well plate format is mainly for lab based and detailed screening/studies. The 96-well format is developed mainly for field applications. The test protocol starts with the preparation of the water sample to be tested by mixing the water from different water systems or artificial water with known bacterial populations with limited nutrient (16% of medium, 2% (w/w) casitone, 0.8% (w/w) yeast extracts, 4% (v/v) glycerol, 4 ppm FeCl3) and the solution of the treatment chemical. This step usually generates a series of the treated water samples with different concentrations for the treatment chemical(s) (from about 0.8 ppm to 1,000 ppm). Next, 200 μL of each treated water samples were transferred to a 96 well plate or 12 well plate. Usually, six replicates would be tested for each concentration of the treatment chemical(s) and controls with no treatment chemical and no bacterial were also placed in the plate(s). After the treated samples were properly plated, the plate(s) are placed on a slow rotary shaker in a humidity-controlled environment on at 32-35° C. for 40-48 hours of incubation. After this step, the bacterial cultures in the plate(s) were carefully poured out and 250 ul of dyes (350 ppm 2-(4-Iodophenyl)-3-(4-nitrophenyl)-5-phenyltetrazolium chloride (INT) or 2,000 ppm crystal violent (CV) for biofilm matrix stain) was added to each well for activity stain in biofilms on well walls. After 10-15 minutes, pour out the dye and gently wash the wells with deionized water until no colored water is running of the plate(s). After drying the plate(s), each well was inspected visually for staining and results are recorded. Alternatively, use 300 uL ethanol to extract CV dyes and transfer 200 uL of ethanol to a new plate for microtiter plate recording at 590 nm. […] The bacteria used in this example for microbial and/or biofilm growth inhibition test protocols comprised a mixture of aerobic populations from more than 30 cooling systems in North America. The specific species were not specifically identified. Those species were grown on […] agar.

Row | Compound | Bacterial growth ([1]; test concentration 0.8 ppm) | Bacterial growth ([1]; test concentration 1.5 ppm) | Bacterial growth ([1]; test concentration 3 ppm) | Bacterial growth ([1]; test concentration 6 ppm) | Bacterial growth ([1]; test concentration 12 ppm) | Bacterial growth ([1]; test concentration 25 ppm) | Bacterial growth ([1]; test concentration 50 ppm) | Bacterial growth ([1]; test concentration 63 ppm) | Bacterial growth ([1]; test concentration 125 ppm) | Bacterial growth ([1]; test concentration 250 ppm) | Bacterial growth ([1]; test concentration 500 ppm) | Bacterial growth ([1]; test concentration 1000 ppm) | Biofilm growth ([2]; test concentration 0.8 ppm) | Biofilm growth ([2]; test concentration 1.5 ppm) | Biofilm growth ([2]; test concentration 3 ppm) | Biofilm growth ([2]; test concentration 6 ppm) | Biofilm growth ([2]; test concentration 12 ppm) | Biofilm growth ([2]; test concentration 25 ppm) | Biofilm growth ([2]; test concentration 50 ppm) | Biofilm growth ([2]; test concentration 63 ppm) | other results
1 | 3,3′-((3,3′-(octylazanediyl)bis(propanoyl))bis(azanediyl))bis(N,N,N-trimethylpropan-1-aminium) chloride [Compound 4] | + | + | + | ++ | +/− | − | − | − | − | − | − | − | + | + | +/− | − | − | − | − | − | Biofilm growth ([2]; test concentration 125 ppm): −; Biofilm growth ([2]; test concentration 250 ppm): −; Biofilm growth ([2]; test concentration 500 ppm): −; Biofilm growth ([2]; test concentration 1000 ppm): −
2 | CCCCCCCCCCCCN(CCC(=O)NCCC[N+](C)(C)C)CCC(=O)NCCC[N+](C)(C)C.[Cl-].[Cl-] [Compound 1, 3,3′-((3,3′-(dodecylazanediyl)bis(propanoyl))bis(azanediyl))bis(N,N,N-trimethylpropan-1-aminium) chloride] | + | + | + | + | + | + | + | + | + | + | + | − | + | + | + | + | + | + | + | + | Biofilm growth ([2]; test concentration 125 ppm): +; Biofilm growth ([2]; test concentration 250 ppm): +/−; Biofilm growth ([2]; test concentration 500 ppm): −; Biofilm growth ([2]; test concentration 1000 ppm): −
3 | CCCCCCCCCCCCCCCCN(CCC(=O)NCCC[N+](C)(C)C)CCC(=O)NCCC[N+](C)(C)C.[Cl-].[Cl-] [Compound 2, 3,3′-((3,3′-(hexadecylazanediyl)bis(propanoyl))bis(azanediyl))bis(N,N,N-trimethylpropan-1-aminium) chloride] | + | + | + | + | + | + | +/− | − | − | − | − | − | + | + | + | + | + | +/− | − | − | Biofilm growth ([2]; test concentration 125 ppm): −; Biofilm growth ([2]; test concentration 250 ppm): −; Biofilm growth ([2]; test concentration 500 ppm): −; Biofilm growth ([2]; test concentration 1000 ppm): −
4 | CCCCCCCCC=CCCCCCCCCN(CCC(=O)NCCC[N+](C)(C)C)CCC(=O)NCCC[N+](C)(C)C.[Cl-].[Cl-] [Compound 3, 3,3′-((3,3′-(octadec-9-en-1-ylazanediyl)bis(propanoyl))bis(azanediyl)) bis(N,N,N-trimethylpropan-1-aminium) chloride] | + | + | + | + | + | + | +/− | +/− | − | − | − | − | + | + | + | + | +/− | +/− | +/− | − | Biofilm growth ([2]; test concentration 125 ppm): −; Biofilm growth ([2]; test concentration 250 ppm): −; Biofilm growth ([2]; test concentration 500 ppm): −; Biofilm growth ([2]; test concentration 1000 ppm): _
